Where “and” joins values, the source holds several entries; their conditions need not be identical. Equal entries are not always repeated. Structures can show the parent of a compound that is named as a salt.
Key:
rabbit pupil [1] = experiment: Rabbit pupil constriction after single eye drop (Test Example 1); type: in vivo, New Zealand rabbit; conditions: rabbits, Test Example 1 solutions
Description: Except for group 5), the eye drop solutions of groups 1) to 12) described above contained an equimolar concentration of pilocarpine. The molar concentration of pilocarpine in the eye drop solution of group 5) was half of the molar concentration of pilocarpine in the solutions of the other 11 groups.
The effects of the eye drop solutions of groups 1) to 12) prepared above on rabbit pupil constriction and irritation were tested separately.
• Species and strain: New Zealand rabbit • Grade: normal • Source: Qinglongshan Animal Breeding Farm, Jiangning District, Nanjing • Production license No.: SCXK (Su) 2016-0008 • Animal age: about 110 days old at the time of administration • Animal body weight: about 2.5-3.5 kg at the time of administration • Animal sex: all male • Feed: rabbit pellet feed • Housing conditions: air-conditioned room, with a temperature of 18-26° C. and a relative humidity of 40%-80%.
• Digital vernier caliper: specification: 0-150 mm; measurement accuracy: 0.01 mm; manufacturer: Guilin Guanglu Measuring Instrument Co., Ltd.
(§1) Each rabbit was subjected to eye drop administration in the left eye (using a pipette), with an administration volume of 100 μL.
• Number of animals: for JQ series compounds, 6 rabbits per compound; for compounds 1, 2 and 4, 5 rabbits per compound. • Administration schedule: single administration. Measurement indicators and time points: • for JQ series compounds, the pupil diameter of the left eye of the rabbits was measured at time points of −0.5 h (i.e., half an hour before administration), 5 min, 10 min, 15 min, 0.5 h, 3 h and 4 h relative to administration, with the measurement repeated 3 times for each rabbit at each time point (measurement time points were extended if necessary); • for compounds 1, 2 and 4, the pupil diameter of the left eye of the rabbits was measured at time points of 3 h and 4 h relative to administration, with the measurement repeated 3 times for each rabbit at each time point (measurement time points were extended if necessary).
Percentage change in pupil diameter (%) after administration=(pupil diameter after administration−pupil diameter before administration)/pupil diameter before administration×100%
The measurement result for each rabbit at each time point was represented by the average value of three measurements.

rabbit pupil [2] = experiment: Rabbit pupil diameter change with other pilocarpine salts (Test Example 2); type: in vivo; conditions: for Percentage change in pupil diameter: average value ± SD; for miosis effect on rabbit pupils 3 h after administration: Table 2-1 solutions, equimolar pilocarpine
From the text: Pilocarpine nitrate: with a molecular weight of 271.27 and a purity of 98%, from Nanjing Jiqun Pharmaceutical Technology Co., Ltd., prepared into a 1.38% solution using normal saline. Pilocarpine salicylate: with a molecular weight of 346.24 and a purity of 99.73%, from Nanjing Jiqun Pharmaceutical Technology Co., Ltd., prepared into a 1.76% solution using normal saline. Pilocarpine malate: with a molecular weight of 342.21 and a purity of 99.72%, from Nanjing Jiqun Pharmaceutical Technology Co., Ltd., prepared into a 1.74% solution using normal saline. Pilocarpine maleate: with a molecular weight of 324.19 and a purity of 99.76%, from Nanjing Jiqun Pharmaceutical Technology Co., Ltd., prepared into a 1.65% solution using normal saline. Pilocarpine fumarate: with a molecular weight of 324.19 and a purity of 99.74%, from Nanjing Jiqun Pharmaceutical Technology Co., Ltd., prepared into a 1.65% solution using normal saline. Pilocarpine lipoate: with a molecular weight of 414.58 and a purity of 99.56%, from Nanjing Jiqun Pharmaceutical Technology Co., Ltd., prepared into a 2.11% solution using normal saline. Note: The concentrations of the compounds were different, but they all contained an equimolar amount of pilocarpine. Each rabbit in each group was subjected to single eye drop administration in the left eye, with an administration volume of 100 μL. […] The entire measurement process was completed by the same person.

rabbit eyes = experiment: Eye irritation in rabbits (Test Example 2); type: in vivo; conditions: 2.11% solution
[3] = Stability tests on compound starting materials (HPLC related substances); type: physicochemical; conditions: starting material
Description: Samples: compound 1, compound 2 and pilocarpine hydrochloride starting material solid particles.
High-temperature test: 1 g of each of compound 1, compound 2 and pilocarpine hydrochloride starting materials were taken and placed in an open container inside a constant temperature device at 40° C.; samples were taken at time points of day 0 and day 5, and then tested according to the key stability examination items. The stability of the active pharmaceutical ingredient itself and the trend of changes in stability under the conditions of influencing factor tests were observed.
Strong light irradiation test: 1 g of each of compound 1, compound 2 and pilocarpine hydrochloride starting materials were taken and placed in an open container inside a light irradiation box, with the illumination set at 4500 lx±500 lx; samples were taken at time points of day 0 and day 5, and then tested according to the key stability examination items.
High-humidity test: 1 g of each of compound 1, compound 2 and pilocarpine hydrochloride starting materials was taken and placed in an open container inside a constant humidity closed container at 25° C. and with a relative humidity of 75%±5%; samples were taken at day 0 and day 5, and then tested according to the requirements of the key stability examination items.
According to the records in the European Pharmacopoeia (EP), the key related substances to be examined for pilocarpine include: impurity A isopilocarpine (Z-A), impurity B pilocarpic acid (Z-B), and impurity C isopilocarpic acid (Z-C). The samples taken at different time points from the above high-temperature test, strong light irradiation test and high-humidity test were separately tested using high-performance liquid chromatography to observe the trend of changes in stability under the conditions of the influencing factor tests.
The related substances were determined according to the high-performance liquid chromatography (General Chapter 0512, Chinese Pharmacopoeia, Volume IV, 2020 Edition).
Test sample solution: an appropriate amount of each test sample was precisely weighed, dissolved in water, and diluted to prepare a solution containing 1 mg of test sample per 1 mL.
Chromatographic conditions: octadecyl bonded silica gel was used as a filler [kromasil 100-5-C18 column (4.0 mm×[…]) or a chromatographic column with equivalent performance], 0.679 g/L tetrabutylammonium dihydrogen phosphate-methanol-acetonitrile (885:55:60) (adjusted to pH 7.7 with dilute aqueous ammonia) was used as mobile phase A, and acetonitrile-water (80:20) was used as mobile phase B; gradient elution was performed according to Table 6-1, with a column temperature of 30° C., a flow rate of 1.0 mL/min, a detection wavelength of 220 nm, and a sample injection volume of 20 μL.

rabbit pupil [4] = experiment: Rabbit pupil diameter change, pilocarpine p-toluate at different concentrations (Test Example 3); type: in vivo; conditions: 1.25%
Description: Under the condition of normal saline, the onset time, strength of effect, duration of effect, and irritation of 1.25% pilocarpine hydrochloride and different concentrations (0.88%, 1.75%, 3.50%) of pilocarpine p-toluate were tested.
as §1
Number of animals: 6 rabbits per compound.
Administration schedule: single administration.
• the pupil diameter of the left eye of the rabbits was measured at time points of −0.5 h (i.e., half an hour before administration), 5 min, 10 min, 15 min, 0.5 h, 3 h and 4 h relative to administration, with the measurement performed 3 times for each rabbit at each time point.

[5] = Light-5 days (4500 lx), hydrochloride
[6] = RH 75%-5 days, 25° C., hydrochloride
[7] = drug concentration 1.65%, 0.5 h

CC[C@@H]1C(=O)OC[C@@H]1Cc1cncn1C [Compound 4]
pupil constriction (miosis) effect at 3 h after administration (rabbit pupil [1]): still showed miosis effect

CC[C@@H]1C(=O)OC[C@@H]1Cc1cncn1C.O=C(O)CCCCC1CCSS1 [Pilocarpine lipoate]
Percentage change in pupil diameter (rabbit pupil [2]; drug concentration 2.11%, 0.5 h): −40.69 ± 2.68% | Percentage change in pupil diameter (rabbit pupil [2]; drug concentration 2.11%, 3 h): −3.11 ± 2.38% | eye irritation on administration (rabbit eyes): caused significant irritation and noticeable hyperemia

CC[C@@H]1C(=O)OC[C@@H]1Cc1cncn1C [Pilocarpine nitrate]
miosis effect on rabbit pupils 3 h after administration (rabbit pupil [2]): substantially no miosis effect

CCC1C(=O)OCC1Cc1cncn1C.O=C(O)c1ccccc1O (stereo not shown) [Pilocarpine salicylate]
miosis effect on rabbit pupils 3 h after administration (rabbit pupil [2]): substantially no miosis effect | Percentage change in pupil diameter (rabbit pupil [2]; drug concentration 1.76%, 0.5 h): −30.12 ± 4.47% | Percentage change in pupil diameter (rabbit pupil [2]; drug concentration 1.76%, 3 h): 2.91 ± 1.07%

CC[C@@H]1C(=O)OC[C@@H]1Cc1cncn1C [pilocarpine hydrochloride, reference compound]
miosis effect on rabbit pupils 3 h after administration (rabbit pupil [2]): substantially no miosis effect | (Z-C) impurity C isopilocarpic acid ([3]; 40° C.-5 days): 0% | Maximum single impurity ([3]; 40° C.-5 days): 0% | (Z-A) impurity A isopilocarpine ([3]; 40° C.-5 days, hydrochloride): 0.248% | (Z-B) impurity B pilocarpic acid ([3]; 40° C.-5 days, hydrochloride): 0% | Total impurity ([3]; 40° C.-5 days, hydrochloride): 0.248% | (Z-B) impurity B pilocarpic acid ([3]; Day 0): 0% | (Z-C) impurity C isopilocarpic acid ([3]; Day 0): 0% | Maximum single impurity ([3]; Day 0): 0% | (Z-A) impurity A isopilocarpine ([3]; Day 0, hydrochloride): 0.197% | Total impurity ([3]; Day 0, hydrochloride): 0.197% | (Z-C) impurity C isopilocarpic acid ([3]; Light-5 days (4500 lx)): 0% | Maximum single impurity ([3]; Light-5 days (4500 lx)): 0% | (Z-A) impurity A isopilocarpine [3, 5]: 0.248% | (Z-B) impurity B pilocarpic acid [3, 5]: 0% | Total impurity [3, 5]: 0.248% | (Z-C) impurity C isopilocarpic acid ([3]; RH 75%-5 days, 25° C.): 0% | (Z-A) impurity A isopilocarpine [3, 6]: 0.259% | (Z-B) impurity B pilocarpic acid [3, 6]: 1.641% | Maximum single impurity [3, 6]: 0.123% | Total impurity [3, 6]: 2.023% | maximum percentage change in pupil diameter (rabbit pupil [1]): around 35% | pupil constriction (miosis) effect at 3 h after administration (rabbit pupil [1]; hydrochloride): substantially no pupil constriction effect | Percentage change in pupil diameter (rabbit pupil [4]; 5 min, average of 6 rabbits): −7.81% | Percentage change in pupil diameter (rabbit pupil [4]; 5 min, individual rabbit, hydrochloride): −6.28% and −7.23% and −8.93% and −6.51% and −15.75% and −2.17% | Percentage change in pupil diameter (rabbit pupil [4]; 10 min, average of 6 rabbits): −29.35% | Percentage change in pupil diameter (rabbit pupil [4]; 10 min, individual rabbit, hydrochloride): −29.40% and −32.93% and −28.98% and −26.64% and −36.43% and −21.69% | Percentage change in pupil diameter (rabbit pupil [4]; 15 min, average of 6 rabbits): −35.33% | Percentage change in pupil diameter (rabbit pupil [4]; 15 min, individual rabbit, hydrochloride): −40.68% and −36.99% and −33.54% and −33.71% and −42.10% and −24.95% | Percentage change in pupil diameter (rabbit pupil [4]; 0.5 h, average of 6 rabbits): −34.59% | Percentage change in pupil diameter (rabbit pupil [4]; 0.5 h, individual rabbit, hydrochloride): −36.45% and −36.62% and −38.14% and −32.89% and −39.82% and −23.64% | Percentage change in pupil diameter (rabbit pupil [4]; 3 h, average of 6 rabbits): −3.13% | Percentage change in pupil diameter (rabbit pupil [4]; 3 h, individual rabbit, hydrochloride): 4.54% and −0.58% and 0.03% and −6.71% and −16.22% and 0.16% | Percentage change in pupil diameter (rabbit pupil [4]; 4 h, average of 6 rabbits): 0.25% | Percentage change in pupil diameter (rabbit pupil [4]; 4 h, individual rabbit, hydrochloride): −0.15% and −1.79% and 2.79% and 2.49% and −2.39% and 0.54%

Pilocarpine fumarate
miosis effect on rabbit pupils 3 h after administration (rabbit pupil [2]): substantially no miosis effect | Percentage change in pupil diameter (rabbit pupil [2]; [7]): −22.09 ± 6.44% | Percentage change in pupil diameter (rabbit pupil [2]; drug concentration 1.65%, 3 h): −1.00 ± 1.51%

Pilocarpine malate
miosis effect on rabbit pupils 3 h after administration (rabbit pupil [2]): substantially no miosis effect | Percentage change in pupil diameter (rabbit pupil [2]; drug concentration 1.74%, 0.5 h): −27.71 ± 4.98% | Percentage change in pupil diameter (rabbit pupil [2]; drug concentration 1.74%, 3 h): 0.07 ± 2.49%

Pilocarpine maleate
miosis effect on rabbit pupils 3 h after administration (rabbit pupil [2]): substantially no miosis effect | Percentage change in pupil diameter (rabbit pupil [2]; [7]): −27.53 ± 4.42% | Percentage change in pupil diameter (rabbit pupil [2]; drug concentration 1.65%, 3 h): −1.52 ± 6.38%

Reference: patent US20250154135A1, “M-CHOLINE RECEPTOR AGONIST COMPOUND, PREPARATION METHOD THEREFOR AND USE THEREOF” (NANJING GRITPHARMA CO., LTD., priority 2022, published 2025)
